Source: ChEMBL document CHEMBL2046285, “Synthesis of novel imbricatolic acid analogues via insertion of N-substituted piperazine at C-15/C-19 positions, displaying glucose uptake stimulation in L6 skeletal muscle cells” (2012)

These molecules were tested on L6 (assay: Antidiabetic activity in rat L6 cells assessed as stimulation of glucose uptake at 10 uM).
Assay type: functional

Q: For `C=C1CC[C@@H]2[C@](C)(CCC[C@]2(C)C(=O)OC)[C@H]1CC[C@H](C)CCOC(=O)CN1CCN(C)CC1`, which Activity is on record?
A: -3.75%

Q: With `C=C1CC[C@@H]2[C@](C)(CCC[C@]2(C)C(=O)OC)[C@H]1CC[C@H](C)CCOC(=O)CN1CCN(c2ccc(C)cc2)CC1` as the molecule, how does the Activity read?
A: 15.27%

Q: How did the Activity turn out when `C=C1CC[C@@H]2[C@](C)(CCC[C@]2(C)C(=O)N2CCN(C)CC2)[C@H]1CC[C@H](C)CCOC(C)=O` was run?
A: -10.16%

Q: With `C=C1CC[C@@H]2[C@](C)(CCC[C@]2(C)C(=O)N2CCN(c3cccc(OC)c3)CC2)[C@H]1CC[C@H](C)CCOC(C)=O` as the molecule, how does the Activity read?
A: 54.73%

Q: With `C=C1CC[C@@H]2[C@](C)(CCC[C@]2(C)C(=O)N2CCN(c3ccc(F)cc3)CC2)[C@H]1CC[C@H](C)CCOC(C)=O` as the molecule, how does the Activity read?
A: 22.45%

Q: `C=C1CC[C@@H]2[C@](C)(CCC[C@]2(C)C(=O)OC)[C@H]1CC[C@H](C)CCOC(=O)CN1CCN(c2ccc(Cl)cc2)CC1` was tested. Which Activity did it give?
A: 39.55%

Q: How did the Activity turn out when `C=C1CC[C@@H]2[C@](C)(CCC[C@]2(C)C(=O)O)[C@H]1CC[C@H](C)CCO` [IMBRICATOLIC ACID] was run?
A: 34.41%

Q: How did the Activity turn out when `C=C1CC[C@@H]2[C@](C)(CCC[C@]2(C)C(=O)OC)[C@H]1CC[C@H](C)CCOC(=O)CN1CCN(C/C=C/c2ccccc2)CC1` was run?
A: 18.58%

Q: Which Activity does the source give for `C=C1CC[C@@H]2[C@](C)(CCC[C@]2(C)C(=O)N2CCN(c3ccccc3)CC2)[C@H]1CC[C@H](C)CCOC(C)=O` here?
A: 24.14%

Q: For `C=C1CC[C@@H]2[C@](C)(CCC[C@]2(C)C(=O)N2CCN(c3ccc(C)cc3)CC2)[C@H]1CC[C@H](C)CCOC(C)=O`, which Activity is on record?
A: 2.21%

Q: How did the Activity turn out when `C=C1CC[C@@H]2[C@](C)(CCC[C@]2(C)C(=O)OC)[C@H]1CC[C@H](C)CCOC(=O)CN1CCN(c2ccc(F)cc2)CC1` was run?
A: 28.86%

Q: With `C=C1CC[C@@H]2[C@](C)(CCC[C@]2(C)C(=O)N2CCN(c3ccc(Cl)cc3)CC2)[C@H]1CC[C@H](C)CCOC(C)=O` as the molecule, how does the Activity read?
A: 40.79%

Q: `C=C1CC[C@@H]2[C@](C)(CCC[C@]2(C)C(=O)OC)[C@H]1CC[C@H](C)CCOC(=O)CN1CCN(c2cccc(OC)c2)CC1` was tested. Which Activity did it give?
A: 40.9%

Q: How did the Activity turn out when `C=C1CC[C@@H]2[C@](C)(CCC[C@]2(C)C(=O)OC)[C@H]1CC[C@H](C)CCOC(=O)CN1CCN(c2ccccc2)CC1` was run?
A: 29.51%

Q: Which Activity does the source give for `C=C1CC[C@@H]2[C@](C)(CCC[C@]2(C)C(=O)N2CCN(C/C=C/c3ccccc3)CC2)[C@H]1CC[C@H](C)CCOC(C)=O` here?
A: 16.3%

Q: With `C=C1CC[C@@H]2[C@](C)(CCC[C@]2(C)C(=O)N2CCN(C(C)=O)CC2)[C@H]1CC[C@H](C)CCOC(C)=O` as the molecule, how does the Activity read?
A: -1.96%

Q: How did the Activity turn out when `CN(CCOc1ccc(CC2SC(=O)NC2=O)cc1)c1ccccn1` (stereo not drawn) [ROSIGLITAZONE] was run?
A: 54.5%

Q: With `C=C1CC[C@@H]2[C@](C)(CCC[C@]2(C)C(=O)OC)[C@H]1CC[C@H](C)CCOC(=O)CN1CCN(C(C)=O)CC1` as the molecule, how does the Activity read?
A: -5.9%
